“Also recorded” adds a separate entry of the source.
How the values were obtained:
[1] = test system: human cultured airway smooth muscle cells; assay: DNA synthesis: [3H]-thymidine incorporation; type: cell-based
Method: (§1) Human bronchial airway smooth muscle was obtained from macroscopically normal lung resection specimens from lung transplant donors or recipients provided by the Alfred Hospital (Melbourne). Cultures were prepared as previously described in detail (Tomlinson et al., 1994). Briefly, the tissue was partially digested in Dulbecco's Modified Eagle's Medium (DMEM), [supplemented with 2 mM L-glutamine, 100 μg/ml streptomycin, 100 U/ml penicillin-G, 2 μg/ml amphotericin B, and 0.25% w/v bovine serum albumin (BSA)] containing 3 mg/ml collagenase for 30 minutes at 37° C. and approximately 0.5 g smooth muscle was further digested by a 2 hour incubation in 0.5 mg/ml elastase, followed by an 18 hour incubation in collagenase (3 mg/ml) at 37° C. Cell suspensions ere centrifuged (10 min, 100×g, 25° C.), washed three times in supplemented DMEM, resuspended in 25 ml DMEM containing 10% (v/v) heat-inactivated foetal calf serum (FCS), seeded into 25 cm^2 Falcon culture flasks and incubated (37° C., 5% CO2) for 7 to 10 days until monolayer confluence was reached. Cells were then harvested weekly by 10 min exposure to 0.5% trypsin, 1 mM EDTA and passaged at a 1:3 split ratio into 75 cm^2 Falcon culture flaskes. Cells at passage numbers 3 to 15 were used for experiments.
(§2) Cells were subcultured into 24-well plates at a 1:3 ratio and allowed to grow to monolayer confluency over a 72-96 hour period in an atmosphere of 5% CO2 in air at 37° C. The serum-containing medium was replaced with serum-free DMEM for a 24 hour period to produce growth arrest. In some experiments, the cells were pretreated with 2-methoxyestradiol 30 min before the addition of mitogen. The stimulant (mitogen) was added to the appropriate wells together with a supplement containing insulin, transferrin, and selenium (Monomed A, 1% v/v). Monomed A was added to provide progression factors which are essential for the mitogenic activity of growth factors such as thrombin, epidermal growth factor (EGF) and basic fibroblast growth factor (bFGF) (Stewart et al., 1995a). Mitogens and inhibitors were left in contact with cells from the time of addition until the end of the experiment, unless indicated otherwise. Cells were incubated for 24 hours (37° C., 5% CO2) before being pulsed with [^3 H]-thymidine (1 μCi/ml for four hours) to measure incorporation of radiolabel into newly synthesized DNA, according to out previous study (Stewart et al., 1995). Incorporation of radioactivity was determined by filtration at the end of the pulse-labelling period. The medium containing the radioactivity was aspirated and the cells were lysed by addition of 200 μl of 0.1M NaOH. The DNA was immobilised by filtration in a binding harvester (Packard Filtermate 196) on glass fibre filters (Packard, standard), which were then washed with 3×3 ml volumes of distilled water and a single 1 ml volume of 100% ethanol. The dried filters were counted in a Packard Topcount liquid scintillation counter. Protein synthesis rates were determined in experiments of analogous design to those described above, but [^3 H]-leucine replaced [^3 H]-thymidine in the pulsing incubation of 4 hours. Furthermore, in experiments to determine the effects of mitogens and 2-methoxyestradiol on the rate of protein synthesis, incubations with mitogen were carried out for a period of 48 hours. The longer duration of these experiments was required to allow sufficient time for cell division to occur.
(§3) Each treatment in an individual experiment was carried out in quadruplicate for DNA and protein synthesis experiments. Each experiment was performed in at least three different cultures obtained from three different individuals. For cell counting, single incubations were carried out in three cultures. Results are presented as grouped data from multiple cultures and are expressed as mean ±S. E. of n cultures. The degree of increment was calculated by dividing the response of treated wells by that of the control wells on the same 24-well plate.

[2] = test system: human cultured airway smooth muscle cells; assay: Protein synthesis: [3H]-leucine incorporation; type: cell-based; settings: for [3H]-leucine incorporation: Table 5, unstimulated cells, mean
Method: as §1, §2, §3

[3] = test system: human cultured airway smooth muscle cells; assay: Protein synthesis: [3H]-leucine incorporation; type: cell-based; settings: Table 5, unstimulated cells, mean
[4] = test system: airway smooth muscle cells; assay: Morphological changes (cell rounding); type: cell-based, human
[5] = test system: cultured airway smooth muscle; settings: cited from earlier work; for mitogenic activity on airway smooth muscle: various species
[6] = test system: endothelial cells and fibroblasts; settings: actively proliferating or non-quiescent; cited from earlier work

C[C@]12CC[C@@H]3c4cc(O)c(O)cc4CC[C@H]3[C@@H]1CC[C@@H]2O [2-hydroxyestradiol, 1,3,5[10]-estratriene-2,3,17β-triol]
DNA synthesis in response to FCS (1%), 3 and 10 μM ([1]; FCS 1%): inhibited DNA synthesis
FCS (1%)-stimulated DNA synthesis, lower concentrations ([1]; FCS 1%): increased DNA synthesis
[3H]-leucine incorporation ([2]; concentration 0.3): 107 % control
[3H]-leucine incorporation ([2]; concentration 1.0): 94 % control
[3H]-leucine incorporation ([2]; concentration 3.0): 56 % control
[3H]-leucine incorporation ([3]; concentration 10.0): 51 % control

COc1cc2c(cc1O)CC[C@@H]1[C@@H]2CC[C@]2(C)C(=O)CC[C@@H]12 [2-methoxyestrone]
concentration-response of enhancement of thrombin-stimulated DNA synthesis ([1]; thrombin): bell-shaped concentration-response curve
enhancement of thrombin-stimulated DNA synthesis, 10 μM ([1]; thrombin 0.3 U/ml, 10 μM): level of enhancement declined at 10 μM
thrombin-stimulated DNA synthesis (analogues) ([1]; thrombin 0.3 U/ml, up to 3 μM): enhanced thrombin-stimulated DNA synthesis

NCCc1c[nH]c2ccc(O)cc12 [5HT, Serotonin, reference compound]
incorporation of [3H]-thymidine by serotonin ([1]; 5HT 0.1 nM up to 10 μM): no effect
incorporation of [3H]-leucine by serotonin ([2]; 5HT 10 nM): increased incorporation of [^3 H]-leucine

C[C@]12CC[C@@H]3c4ccc(O)cc4CC[C@H]3[C@@H]1CC[C@@H]2O [17β-estradiol, 1,3,5[10]-estratriene-3, 17β-diol, reference compound]
FCS (1%)-stimulated DNA synthesis, 10 μM ([1]; FCS 1%, 10 μM): inhibition was observed at 10 μM
DNA synthesis in response to FCS (1%), 3 and 10 μM ([1]; FCS 1%): inhibited DNA synthesis
FCS (1%)-stimulated DNA synthesis, lower concentrations ([1]; FCS 1%): enhanced; also recorded: increased DNA synthesis
[3H]-leucine incorporation ([2]; concentration 0.3): 103 % control
[3H]-leucine incorporation ([2]; concentration 3.0): 87 % control
[3H]-leucine incorporation ([3]; concentration 1.0): 89 % control
[3H]-leucine incorporation ([3]; concentration 10.0): 100 % control

CC#C[C@]1(O)CC[C@H]2[C@@H]3CCC4=CC(=O)CCC4=C3[C@@H](c3ccc(N(C)C)cc3)C[C@@]21C [RU 486, reference compound]
effect on inhibition of DNA synthesis by 2-methoxyestradiol ([1]; RU 486 (1 μM), 2-methoxyestradiol 3 μM, FCS 1%): no effect
shape changes in response to colchicine or 2-methoxyestradiol ([4]; RU 486 as antagonist): reduced the shape changes

CCCCC[C@H](O)/C=C/[C@@H]1[C@@H](C/C=C\CCCC(=O)O)[C@H]2CO[C@@H]1C2 [U46619]
mitogenic activity on airway smooth muscle [5]: only weakly active

COc1cc2c(c(OC)c1OC)-c1ccc(OC)c(=O)cc1[C@@H](NC(C)=O)CC2 [colchicine, reference compound]
shape changes ([4]; colchicine 0.1-10 μM): similar

C[C@@H]1C[C@H]2[C@@H]3CCC4=CC(=O)C=C[C@]4(C)[C@@]3(F)[C@@H](O)C[C@]2(C)[C@@]1(O)C(=O)CO [dexamethasone]
effect on proliferation of cultured airway smooth muscle [5]: anti-proliferative effect

NCCc1c[nH]cn1 [histamine]
mitogenic activity on airway smooth muscle [5]: completely inactive

EGF: epidermal growth factor
DNA synthesis ([3H]-thymidine incorporation) over unstimulated ([1]; 3 nM EGF, fold series): 4.5±0.7
mitogenic activity on airway smooth muscle [5]: most effective proliferative agents

bFGF: human recombinant basic FGF
DNA synthesis ([3H]-thymidine incorporation) over unstimulated ([1]; 300 pM bFGF, fold series): 22.5±5.3
mitogenic activity on airway smooth muscle [5]: most effective proliferative agents

endothelin-1
mitogenic activity on airway smooth muscle [5]: only weakly active

heparin [reference compound]
effect on proliferation of cultured airway smooth muscle [5]: inhibit proliferation of airway smooth muscle cells
proliferation of endothelial cells and fibroblasts [6]: enhance endothelial cell proliferation

thrombin: thrombin (bovine plasma), mitogen
DNA synthesis ([3H]-thymidine incorporation) over unstimulated ([1]; 0.3 U/ml thrombin): 8.4±3.1 fold
mitogenic activity on airway smooth muscle [5]: effective growth factor
